Experimental data: paper PMC7641581, “Cannabidiol interactions with voltage-gated sodium channels” (eLife, 2020)
Numbering of substitutions follows the chain as printed.

Assays:
[1] = biological target: T1, NavMs voltage-gated sodium channel (Magnetococcus marinus, UniProt A0L5S6, T207A); assay: whole-cell voltage-clamp, block at […] CBD; format: cell-based
T1 construct: gene Mmc1_0798; T207A NavMs α-subunit in CHO-K1 cells, co-transfected with β1-subunit and eGFP
T1 sequence (A0L5S6 1-274 T207A): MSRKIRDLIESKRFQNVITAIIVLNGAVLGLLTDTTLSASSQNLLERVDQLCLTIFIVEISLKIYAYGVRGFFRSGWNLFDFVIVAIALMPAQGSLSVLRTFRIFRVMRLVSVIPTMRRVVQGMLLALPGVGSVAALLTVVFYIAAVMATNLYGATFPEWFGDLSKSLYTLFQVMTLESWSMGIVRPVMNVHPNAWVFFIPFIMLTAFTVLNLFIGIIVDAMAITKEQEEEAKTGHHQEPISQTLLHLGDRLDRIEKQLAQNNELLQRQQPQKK

[2] = biological target: T2, NavMs voltage-gated sodium channel (Magnetococcus marinus, UniProt A0L5S6); assay: whole-cell voltage-clamp of transfected CHO-K1 cells; format: cell-based
T2 construct: gene Mmc1_0798; wild-type NavMs α-subunit in CHO-K1 cells, co-transfected with β1-subunit and eGFP
T2 sequence (A0L5S6 1-274): T1 sequence (A0L5S6 1-274 T207A) with A207T

In the case of C=C(C)[C@@H]1CCC(C)=C[C@H]1c1c(O)cc(CCCCC)cc1O [Cannabidiol], the “whole-cell voltage-clamp, block at 10 μM CBD” value [1] is reported as “The mutation of the threonine side chain to a smaller alanine side chain results in a modest reduction in the CBD block” and the IC50 [2] is reported as 17.8 ± 0.5 µM.
